Laboratory results from ChEMBL document CHEMBL4673185 (RSC Med Chem, 2020).
Residues, ends and D or L forms follow the SMILES beside them.

Molecular target: T1, Acid-sensing ion channel 3 (Rattus norvegicus, UniProt O35240)
T1 sequence (O35240 whole entry): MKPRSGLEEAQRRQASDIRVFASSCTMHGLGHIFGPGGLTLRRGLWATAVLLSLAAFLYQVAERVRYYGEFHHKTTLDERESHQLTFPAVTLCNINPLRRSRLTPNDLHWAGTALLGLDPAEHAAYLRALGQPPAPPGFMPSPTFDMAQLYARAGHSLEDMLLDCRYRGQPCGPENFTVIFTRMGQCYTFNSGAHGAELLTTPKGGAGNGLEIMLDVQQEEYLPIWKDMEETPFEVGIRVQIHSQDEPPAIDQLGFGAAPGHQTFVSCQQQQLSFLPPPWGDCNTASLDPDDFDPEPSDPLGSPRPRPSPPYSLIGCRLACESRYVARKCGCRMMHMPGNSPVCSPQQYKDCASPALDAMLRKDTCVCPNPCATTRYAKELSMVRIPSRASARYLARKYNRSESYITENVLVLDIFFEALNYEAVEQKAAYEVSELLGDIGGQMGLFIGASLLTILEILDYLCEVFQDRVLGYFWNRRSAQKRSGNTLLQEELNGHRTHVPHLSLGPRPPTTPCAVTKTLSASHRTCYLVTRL
Assay: Modulation of rat ASIC3 expressed in Xenopus laevis oocytes at -70 mV holding potential by two-electrode voltage clamp method
Assay type: cell-based

N=C(N)NCCC[C@H](NC(=O)[C@@H]1CCCN1C(=O)[C@@H](N)CCCNC(=N)N)C(=O)N[C@@H](Cc1ccccc1)C(=O)O (H-RPRF-OH)
EC50: 3 µM
